Test results from article PMC5078989, “Targeted inhibition of the COP9 signalosome for treatment of cancer” (Nature Communications, 2016).
pEC50: −log10 of the molar value.

Legend:
HCT116 cells = test: Immunoblotting of cullins, CRL components and substrates in HCT116 cells; type: cell-based, human; settings: qualitative western blot analysis
Method: Figure 2 CSN5 inhibition results in the inactivation of a subset of CRLs and the stabilization of their substrates. Effect on CRL components and substrates after treatment of HCT116 cells with either 1 μM MLN4924 or 1 μM CSN5i-3. (a) Immunoblottings for Cul1 and its CRL components Rbx and Skp1; (b) for cullins Cul2, Cul3 and Cul4A; (c) for F-box protein Skp2 and the SCF^Skp2 substrates p21 and p27; (d) for F-box proteins Fbxo22 and Fbxo30; (e) for F-box protein βTrCP and the SCF^βTrCP substrates Wee1 and pIκBα; (f) for the adaptor KEAP1 and the Cul3^KEAP1 substrate Nrf2; (g) for F-box proteins Fbxw7 and Fbxo3.
Cells were maintained in a humidified incubator at 37 °C and 5% CO2. HCT116 cells (ATCC #CCL-247) were grown in McCoy's 5A medium (GIBCO #16600–082) supplemented with 10% fetal bovine serum (FBS), TE-1 (RIKEN BioResource Center, #RCB1894), NCI-H2030 (ATCC #CRL-591), SU-DHL-1 (DMSZ #ACC 356), NOMO-1 (HSRRB #IFO50474) and NCIH196 cells (ATCC, #CRL-5823) in RPMI-1640 medium (GIBCO#61870–010) supplemented with 10% FBS, 10 mM HEPES, 1 mM sodium pyruvate and THP-1 cells (ATCC #TIB-202) with additional 0.05 mM 2-mercaptoethanol. DMS273 cells (ECACC #950628) were cultured in Waymouth's MB 752/1 medium (GIBCO#11220–035) supplemented with 10% FBS. All cells were negatively tested for mycoplasma contamination either by the vendor or in house. For treatment with compounds, sub-confluent cells were either treated with inhibitors at the indicated concentrations or mock treated with an equivalent amount of DMSO (final content 0.1%). If not stated otherwise, cells were harvested after incubation for 16 h and subjected to SDS–PAGE and western blotting. The RNA interference experiment was performed with CSN5 stealth siRNA (#HSS116986) and stealth negative control siRNA (#12935–400) (Invitrogen), which were transfected at 10 nM into HCT116 cells using HiperFect (Qiagen) according to the manufacturer's protocols. Seventy-two hours after transfection, cells were harvested and subjected to SDS–PAGE and western blotting (see Supplementary Fig. 7 for all western blottings performed).
For further analysis, cell lysates were prepared by direct lysis with 2 × Sample buffer (65.8 mM Tris-HCl, pH 6.8, 2.1% SDS, 26.3% glycerol, 0.01% bromophenol blue and 20 mM DTT). Protein lysates from tumour powder were prepared in RIPA buffer (50 mM Tris-HCl pH 8.0, 150 mM NaCl, 1% Triton X-100, 2 mM EDTA, 0.5% sodium deoxycholate and 0.1% SDS) supplemented with 10 mM N-ethylmaleimide, protease inhibitor and phosphatase inhibitor cocktails (Roche Diagnostics). Cells from longer compound incubations were also lysed in RIPA buffer, which allows the protein concentration to be determined by BCA Protein Assay Kit (Pierce). Proteins were separated by SDS–PAGE using 4–20% Tris-Glycine Gels (Invitrogen) and subsequently transferred to polyvinylidene difluoride membranes using a Trans-Blot Turbo System (BioRad). […] Horseradish peroxidase-conjugated secondary antibodies (1:3,000) were purchased from Promega AG and bound antibody was detected by enhanced chemiluminescence (Pierce).

[1] = tested on: panel of cancer cell lines; test: Cell viability (CellTiter-Glo) dose-response across cancer cell line panel; type: cell-based, human; settings: SNB-19;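 also: after 72 h compound incubation with CellTiter-Glo ATP readout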
Source text: Next, we explored the effect of CSN5 inhibition on the viability of cancer cells. To obtain a comprehensive picture, we generated dose–response curves with a CSN5 inhibitor across more than 500 cancer cell lines in a previously described standardized setting[47] (Supplementary Data 1).
A standardized CellTiter-Glo Assay (Promega #G7570) based on the quantification of ATP was applied according to the manufacturer's protocol to measure the amount of viable cells in culture. In brief, cells were seeded into 384-well plates at optimal density for each cell line. After 4 h, compounds were added at different concentrations in growth medium and incubated for another 72 h in a humidifying chamber at 37 °C and 5% CO2. […] EC50 values were calculated from the plot of percentage of inhibition versus inhibitor concentration using the nonlinear regression analysis software Origin 7.5SR6 (OriginLab Corp.).

Row | pEC50 [1] | Structure (SMILES) | cullin-1 (Cul1) deneddylation in HCT116 cells (HCT116 cells)
1 |  | N#Cc1ccc([C@H]2[C@@H](O)CCCc3cncn32)c(-c2ccccc2)c1 (relative stereo) [CSN5i-1a, Cis-6-(6-Hydroxy-6,7,8,9-tetrahydro-5H-imidazo[1,5-a]azepin-5-yl)-[1,1′-biphenyl]-3-carbonitrile] | weakly inhibited
2 | 8.02 | CC(C)C[C@H](NC(=O)[C@H](Cc1ccccc1)NC(=O)c1cnccn1)B(O)O [Botezomib] | 
